According to patent US20220218678A1, “USE OF 1-PHENYL-2-PYRIDINYL ALKYL ALCOHOL DERIVATIVES FOR TREATING CYSTIC FIBROSIS” (CHIESI FARMACEUTICI S.p.A., priority 2017, published 2022):

Legend:
ΔF508 CFTR = molecular target: T1, ΔF508 CFTR (Homo sapiens, UniProt P13569, DEL508-508); assay: HS-YFP assay, CFTR corrector activity in CFBE41o− cells; format: cell-based; settings: 24 h exposure, VRT809 5 μM
T1 construct: cells expressing endogenous ΔF508-CFTR; endogenous in cells; host or cells: CFBE41o− human CF bronchial epithelial cell line (gift from D. C. Gruenert), homozygous ΔF508
T1 sequence (P13569 with tags, fused parts or gaps DEL508-508): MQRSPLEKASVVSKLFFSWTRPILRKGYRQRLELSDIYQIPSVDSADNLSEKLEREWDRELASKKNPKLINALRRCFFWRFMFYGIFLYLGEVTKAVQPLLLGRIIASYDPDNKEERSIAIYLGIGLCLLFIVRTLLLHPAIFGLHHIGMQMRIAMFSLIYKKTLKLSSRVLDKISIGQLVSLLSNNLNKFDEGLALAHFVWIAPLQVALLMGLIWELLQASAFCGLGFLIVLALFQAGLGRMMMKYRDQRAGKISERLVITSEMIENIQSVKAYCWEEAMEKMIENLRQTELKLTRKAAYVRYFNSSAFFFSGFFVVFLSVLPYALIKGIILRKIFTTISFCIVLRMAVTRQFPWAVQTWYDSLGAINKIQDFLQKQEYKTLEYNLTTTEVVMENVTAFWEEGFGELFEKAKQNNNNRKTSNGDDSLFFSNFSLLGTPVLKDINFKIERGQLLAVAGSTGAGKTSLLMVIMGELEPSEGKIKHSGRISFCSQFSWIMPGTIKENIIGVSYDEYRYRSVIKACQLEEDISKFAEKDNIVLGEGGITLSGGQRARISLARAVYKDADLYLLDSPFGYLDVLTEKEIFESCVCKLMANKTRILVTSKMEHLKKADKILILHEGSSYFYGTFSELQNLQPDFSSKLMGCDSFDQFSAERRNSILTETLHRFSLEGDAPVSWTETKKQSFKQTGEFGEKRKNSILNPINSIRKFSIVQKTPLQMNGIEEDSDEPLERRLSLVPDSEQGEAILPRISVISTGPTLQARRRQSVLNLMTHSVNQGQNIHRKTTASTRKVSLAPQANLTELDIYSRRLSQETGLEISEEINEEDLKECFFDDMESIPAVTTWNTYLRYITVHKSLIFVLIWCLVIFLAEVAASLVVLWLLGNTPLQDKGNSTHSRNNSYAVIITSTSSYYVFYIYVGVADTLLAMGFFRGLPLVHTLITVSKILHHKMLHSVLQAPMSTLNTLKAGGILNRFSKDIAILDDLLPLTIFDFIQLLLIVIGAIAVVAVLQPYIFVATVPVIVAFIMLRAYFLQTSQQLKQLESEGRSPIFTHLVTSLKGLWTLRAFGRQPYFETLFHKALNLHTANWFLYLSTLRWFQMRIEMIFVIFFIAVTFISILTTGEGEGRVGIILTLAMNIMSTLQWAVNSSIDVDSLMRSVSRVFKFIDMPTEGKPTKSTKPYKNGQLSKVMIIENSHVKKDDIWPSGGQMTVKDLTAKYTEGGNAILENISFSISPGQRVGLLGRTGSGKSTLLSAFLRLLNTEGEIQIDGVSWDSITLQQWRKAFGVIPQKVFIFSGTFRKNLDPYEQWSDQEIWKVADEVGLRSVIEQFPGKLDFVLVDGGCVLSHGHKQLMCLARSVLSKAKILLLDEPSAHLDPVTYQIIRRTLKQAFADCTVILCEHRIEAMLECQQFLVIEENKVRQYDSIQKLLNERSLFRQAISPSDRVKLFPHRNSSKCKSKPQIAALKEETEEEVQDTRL
Source text: The CF human bronchial epithelial cell line (CFBE41o−), homozygous for the ΔF508 mutation of the CFTR protein (Ehrhard et al., 2006, Cell Tissue Res. Vol. 323, p. 405-415; kind gift from D. C. Gruenert, California Pacific Medical Center Research Institute, San Francisco, Calif., USA) and the human bronchial epithelial cell line 16HBE14o−, wildtype (wt) for the CFTR protein (kindly provided by P. Davis, Case Western Reserve University School of Medicine, Cleveland, Ohio, USA) were maintained in EMEM (Lonza) supplemented with 10% FBS and 1% Glutamax (Sigma). […]
The CFTR activity in epithelial cells was evaluated by Yellow Fluorescence Protein (YFP) with a protocol modified from the method published by Averna et al. (PLoS One, 2013, vol. 8, e66089). […]
The potential corrector activity of roflumilast and a compound of general formula (I) (CHF6001) was evaluated in comparison with the known CFTR corrector VRT809 in the human bronchial epithelial cell line CFBE41o− (homozygous for the ΔF508 mutation of the CFTR protein) by the HS-YFP assay (FIG. 3). […]
FIG. 3. CFTR corrector activity was evaluated in CFBE41o− epithelial cell line after 24 h exposure to CFTR corrector VRT809 (5 μM), CHF6001, and Roflumilast at the indicated doses.
Values are normalized for total cell content and expressed as means±SEM (n=4) *p≤0.05 t-test (vs DMSO)

[1] = healthy volunteers, daily doses of up to 4800 μg (4.8 mg) for 14 days; cited from earlier work
CFTR = molecular target: T2, CFTR (Homo sapiens, UniProt P13569, DEL508-508); assay: Flow cytometry, presence of CFTR epitopes on CFBE41o− cells; format: cell-based; settings: 24 h of treatment, CHF6001 30 nM, Roflumilast 50 nM
T2 construct: cells expressing endogenous ΔF508-CFTR; endogenous in cells; host or cells: CFBE41o− human CF bronchial epithelial cell line (gift from D. C. Gruenert), homozygous ΔF508
T2 sequence (P13569 with tags, fused parts or gaps DEL508-508): as above
Procedure: CFBE41o− cells were seeded 1.5×10^5 cells/well into a 6 multi-well dish in EMEM medium, supplemented with 10% FBS and 1 mM L-glutamine, and maintained in incubator at 37° C. overnight. The day after, the cells were treated with different agents, as follows: VRT809 (5 μM), CHF6001 (30 nM), Roflumilast (50 nM) or the vehicle DMSO. After 24 h cells were harvested.
Specifically for detection of the extracellular domain of CFTR, the cells were washed with PBS 1× and successively stained with the anti-CFTR monoclonal antibody CF3 (Abeam), suitable for detection of the extracellular domain of CFTR. After washing, the secondary antibody goat anti-mouse (μ-chain) conjugated with Alexa Fluor-488 (Invitrogen, Carlsbad, U.S.A.) was added (1 μg for 10^6 cells) for 30 min on ice. […]
Finally cells were washed twice and then analysed at MACSQuant Analyzer (Miltenyi Biotech, Cologne, Germany), and data were analysed with FlowJo Software (Tree Star, Inc).
The percentage of events with background noise (determined with IgM isotype or peptide signal) was subtracted and the result was expressed as %-values of CFTR positive cells. Geometrical means of the signal in the green channel were also obtained and a ratio between the signals obtained with the extracellular-domain specific antibody CF3 and with the polyclonal antibody (Alomone), respectively, with respect to the baseline signal was calculated (MFI). […]

| Compound | CFTR activity (corrector activity) compared with VRT809 (ΔF508 CFTR) | safety and tolerability [1] | presence of CFTR epitopes (CF3 extracellular, Alomone intracellular) (CFTR) |
| --- | --- | --- | --- |
| CS(=O)(=O)Nc1ccc(C(=O)OC(Cc2c(Cl)c[n+]([O-])cc2Cl)c2ccc(OC(F)F)c(OCC3CC3)c2)cc1OCC1CC1 (centres unmarked) [CHF6001, 3-Cyclopropylmethoxy-4-methanesulfonylamino-benzoic acid 1-(3-cyclopropylmethoxy-4-difluoromethoxy-phenyl)-2-(3,5-dichloro-1-oxy-pyridin-4-yl)-ethyl ester] | equal or superior to VRT809 | Good safety and tolerability | restore the presence of CFTR epitopes |
| O=C(Nc1c(Cl)cncc1Cl)c1ccc(OC(F)F)c(OCC2CC2)c1 [Roflumilast, 3-cyclo-propylmethoxy-4-difluoromethoxy-N-[3,5-di-chloropyrid-4-yl]-benzamide] | equal or superior to VRT809 |  | restore the presence of CFTR epitopes |
